{
  "source": "paper PMC10967270",
  "about": "“Intrapulmonary and Systemic Pharmacokinetics of Colistin Following Nebulization of Low-Dose Colistimethate Sodium in Patients with Ventilator-Associated Pneumonia Caused by Carbapenem-Resistant Acinetobacter baumannii” (Antibiotics, 2024)",
  "key": {"[1]": {"assay": "Individual steady-state fAUC of colistin in ELF and plasma by clinical and microbiological outcome", "assay_type": "in vivo, human", "conditions": "for fAUC, median (IQR): steady state over 24 h", "method": "We investigated whether the fAUC values of individual patients were associated with clinical or microbiological outcomes (Table 3). Using individual estimates of CL derived from the final PK model, we calculated the steady-state fAUC for each patient when a total of 3.75 MIU (=300 mg CMS = 112.5 mg CBA) was administered at 6 h intervals four times a day, using the formula AUC = DOSE/CL. The unbound fraction of colistin was assumed to be 10% [25] in the ELF based on the study by Gkoufa et al. and 34% in the plasma based on the study by Mohamed et al.. Gkoufa et al. presented concentration–time profiles of colistin predicted through simulations, assuming unbound fractions in the ELF of 0.01, 0.015, 0.05, and 0.099 [25]. From these, we approximated the unbound fraction at 0.1 by rounding 0.099. Meanwhile, Mohamed et al. determined the unbound fraction in plasma using equilibrium dialysis and reported a measured median (range) colistin unbound fraction of 34% (26–41%).\nThe PK/PD index for colistin is the area under the free colistin concentration-–time curve at steady state over 24 h divided by the pathogen minimum inhibitory concentration (fAUC/MIC). Since we were unable to obtain MIC values for A. baumannii, we evaluated the relationship between the PK and PD of colistin by comparing the fAUC of each patient in accordance with their clinical outcomes and microbiological outcomes. AUC was calculated by dividing the daily dose by patient, which was the individual post hoc Bayesian estimate of the developed PK model. […] The Wilcoxon rank-sum test was used to assess the relationships between fAUC and clinical outcomes, and the Kruskal–Wallis test was used to investigate the association between fAUC and microbiological outcomes. Additionally, leveraging typical PK parameter values from final models of ELF and plasma samples, we simulated concentration-time profiles of colistin for nebulization doses of 25 mg, 50 mg, 75 mg, 100 mg, and 125 mg in patients. Subsequently, we generated concentration–time plots and computed fAUC values."}, "[2]": {"assay": "Population PK model of colistin in epithelial lining fluid (NONMEM, one-compartment, Weibull absorption)", "assay_type": "in vivo, human", "conditions": "ELF", "from_the_text": "The time courses of colistin concentrations in ELF and plasma were best described using one-compartment models with a Weibull absorption process. The following structural PK model described by two differential equations was applied:(1) dA1/dt=−WB×A1 (2) WB=KAMAX×1−e^−RA×time^GAM (3) dA2/dt=WB×A1−CL/V×A2 where A1 and A2 represent the amounts of colistin in ELF and plasma, and WB denotes the Weibull absorption function with parameters KAMMA, RA, and GAM. KAMMA determines the function’s maximum value, often representing the maximum rate of absorption or event occurrence. RA, the shape parameter, controls the rate of change over time, influencing the distribution’s slope and how quickly it increases or decreases. GAM adjusts the time variable’s exponent, controlling the rate of growth or decline over time, thereby affecting the distribution’s asymmetry and indicating the curve’s speed in reaching its peak or declining. CL and V are the total clearance and volume of distribution for colistin, respectively. The estimated CL and V in Table 2 were expressed as CL/fm and V/fm, respectively, where fm represents the fraction of CMS metabolized to colistin, a value that cannot be estimated from our study data. No significant covariates influencing the PK parameters were identified. The estimated PK parameters for the final PK models are presented in Table 2, while individual fit plots for colistin in ELF and plasma can be found in Figure 2 and Figure 3, respectively. Diagnostic goodness-of-fit plots for the final PK model of colistin in ELF and plasma are shown in Supplementary Materials Figures S1 and S2, respectively. […] With the observed 10th, 50th, and 90th percentiles mostly within the 95% confidence intervals of the simulated percentiles, the final PK models effectively explained the observed concentrations and had good predictive performance.\nA population PK analysis of colistin in ELF and plasma was conducted using NONMEM 7.5.0 (ICON Clinical Research LLC, North Wales, PA, USA). The analysis used first-order conditional estimation with interaction (FOCEI) to estimate both observed fixed and unexplained random effect parameters. The FOCEI allows the inter-individual variability (IIV) in the PK parameters to interact with the residual unexplained variability (RUV) in the observed concentrations. The RUV arises from factors such as within-subject variability, assay error, and potential misspecification of the model. ADVAN1 TRANS2 and ADVAN3 TRANS4 from the NONMEM PK model library were used to construct the single- and two-compartment models, respectively. Except for drug inhalation, all PK processes were assumed to follow first-order kinetics. Various absorption models, including zero-order, first-order, Weibull, and transit absorption models, were investigated to describe the absorption processes of colistin.\nThe representation of each PK parameter was given by θi = θ × exp(ηi), where θ stands for the typical value of the PK parameter, θi represents an individual PK parameter, and ηi is a random variable associated with IIV. It was assumed that IIV follows a normal distribution with a mean of 0 and a variance of ω^2. For RUV, which was assumed to be normally distributed with a mean of 0 and a variance of σ^2; additive, proportional, and combined additive and proportional error models were investigated.\nModels were assessed and chosen based on NONMEM objective function values (OFVs), the precision of parameter estimates (relative standard errors), the shrinkage of IIV, and diagnostic goodness-of-fit plots. In the log-likelihood ratio test, if the decrease in OFV (ΔOFV) is greater than 3.84 for models with one additional degree of freedom or greater than 5.99 for models with two additional degrees of freedom, it is considered statistically significant at p < 0.05, indicating an improvement in the model. […]"}},
  "note": "Positions of bridges follow the written chain, without caps; N, C: chain ends. Non-standard residues stand in square brackets, D forms with d. Residues, ends and D or L forms follow the SMILES beside them. *: point of attachment. X1 = CC[C@H](C)CCCCC(=O)*; Dab = NCC[C@H](N)C(=O)O",
  "data": [
    {"smiles": "CC[C@H](C)CCCCC(=O)N[C@@H](CCN)C(=O)N[C@H](C(=O)N[C@@H](CCN)C(=O)N[C@H]1CCNC(=O)[C@H]([C@@H](C)O)NC(=O)[C@H](CCN)NC(=O)[C@H](CCN)NC(=O)[C@H](CC(C)C)NC(=O)[C@@H](CC(C)C)NC(=O)[C@H](CCN)NC1=O)[C@@H](C)O", "note": "[colistin] (X1-[Dab]T[Dab][Dab][Dab][dL]L[Dab][Dab]T; lactam 4-C)", "values": [
      {"measurement": "fAUC, median (IQR)", "setting": "[1]; ELF, clinical outcome cured/improved, 16 patients, 3.75 MIU CMS/day at 6 h intervals, AUC = dose/CL, bioavailability 9%, unbound fraction 10%", "result": "36.7 (18.2–62.9) mg/L·h"},
      {"measurement": "fAUC, median (IQR)", "setting": "[1]; ELF, clinical outcome failed, 4 patients, 3.75 MIU CMS/day, unbound fraction 10%", "result": "31.7 (15.4–47.8) mg/L·h"},
      {"measurement": "fAUC, median (IQR)", "setting": "[1]; ELF, microbiological outcome eradicated, 8 patients, 3.75 MIU CMS/day", "result": "61.2 (12.5–111) mg/L·h"},
      {"measurement": "fAUC, median (IQR)", "setting": "[1]; ELF, microbiological outcome indeterminate, 2 patients, 3.75 MIU CMS/day", "result": "33.9 (30.0–37.9) mg/L·h"},
      {"measurement": "fAUC, median (IQR)", "setting": "[1]; ELF, microbiological outcome persistent, 10 patients, 3.75 MIU CMS/day", "result": "28.5 (17.7–50.5) mg/L·h"},
      {"measurement": "fAUC in ELF relative to plasma", "setting": "[1]; cured/improved group, mean values", "result": "approximately 27.2 times"},
      {"measurement": "fAUC in ELF relative to plasma", "setting": "[1]; cured/improved group, median values", "result": "approximately 26.2 times"},
      {"measurement": "fAUC in ELF relative to plasma", "setting": "[1]; eradicated group, mean values", "result": 39.8, "unit": "times"},
      {"measurement": "fAUC in ELF relative to plasma", "setting": "[1]; eradicated group, median values", "result": 26.0, "unit": "times"},
      {"measurement": "fAUC in ELF relative to plasma", "setting": "[1]; failed group, mean values", "result": "about 14.0 times"},
      {"measurement": "fAUC in ELF relative to plasma", "setting": "[1]; failed group, median values", "result": 15.9, "unit": "times"},
      {"measurement": "fAUC in ELF relative to plasma", "setting": "[1]; indeterminate group, mean values", "result": 6, "unit": "times"},
      {"measurement": "fAUC in ELF relative to plasma", "setting": "[1]; indeterminate group, median values", "result": 6, "unit": "times"},
      {"measurement": "ELF fAUC, cured/improved relative to treatment failure", "setting": "[1]; mean values", "result": "more than 2.25 times"},
      {"measurement": "ELF fAUC, eradicated relative to indeterminate group", "setting": "[1]; mean values", "result": 3.24, "unit": "times"},
      {"measurement": "ELF fAUC, eradicated relative to persistent group", "setting": "[1]; mean values", "result": 3.48, "unit": "times"},
      {"measurement": "ELF fAUC, cured/improved relative to treatment failure", "setting": "[1]; median values", "result": 1.16, "unit": "times"},
      {"measurement": "ELF fAUC, eradicated relative to indeterminate group", "setting": "[1]; median values", "result": 1.80, "unit": "times"},
      {"measurement": "ELF fAUC, eradicated relative to persistent group", "setting": "[1]; median values", "result": 2.15, "unit": "times"},
      {"measurement": "fAUC in ELF relative to plasma", "setting": "[1]; persistent group, mean values", "result": 18.8, "unit": "times"},
      {"measurement": "fAUC in ELF relative to plasma", "setting": "[1]; persistent group, median values", "result": 18.2, "unit": "times"},
      {"measurement": "fAUC, median (IQR)", "setting": "[1]; plasma, clinical outcome cured/improved, 16 patients, 3.75 MIU CMS/day, unbound fraction 34%", "result": "1.40 (0.752–3.74) mg/L·h"},
      {"measurement": "fAUC, median (IQR)", "setting": "[1]; plasma, clinical outcome failed, 4 patients, 3.75 MIU CMS/day, unbound fraction 34%", "result": "2.00 (1.87–2.38) mg/L·h"},
      {"measurement": "fAUC, median (IQR)", "setting": "[1]; plasma, microbiological outcome eradicated, 8 patients, 3.75 MIU CMS/day", "result": "2.36 (0.645–4.11) mg/L·h"},
      {"measurement": "fAUC, median (IQR)", "setting": "[1]; plasma, microbiological outcome indeterminate, 2 patients, 3.75 MIU CMS/day", "result": "5.96 (5.00–6.91) mg/L·h"},
      {"measurement": "fAUC, median (IQR)", "setting": "[1]; plasma, microbiological outcome persistent, 10 patients, 3.75 MIU CMS/day", "result": "1.56 (1.00–2.05) mg/L·h"},
      {"measurement": "CL/fm, bootstrap median (95% CI)", "setting": "[2]; 2000 bootstrap samples", "result": "0.529 (0.352–0.77) mL/min"},
      {"measurement": "KAMAX, bootstrap median (95% CI)", "setting": "[2]; 2000 bootstrap samples", "result": "0.533 (0.335–0.973)"},
      {"measurement": "V/fm, bootstrap median (95% CI)", "setting": "[2]; 2000 bootstrap samples", "result": "24.3 (11.0–46.7) mL"},
      {"measurement": "KAMAX (maximum rate of absorption), estimate", "setting": "[2]; Weibull absorption", "result": 0.531},
      {"measurement": "CL/fm, estimate", "setting": "[2]; final PK model", "result": 0.541, "unit": "mL/min"},
      {"measurement": "V/fm, estimate", "setting": "[2]; final PK model", "result": 23.0, "unit": "mL"}
    ]}
  ]
}
